# What was measured:
# [1] = system: Penicillium digitatum; test: post-harvest rotting of inoculated oranges (Navelina), immersion treatment; type: in vivo
# Description: This example considers the effectiveness of the active natural principles PTS and PTSO in two different doses for the control of post-harvest rotting of oranges ([…] variety), caused by controlled artificial inoculation with the fungi Penicillium digitatum, Penicillium expansum, Phytophthora citrophthora and Geotrichum candidum, the principal pathogens of this fruit. The inoculation of the oranges was carried out with suspensions of spores of the different wild fungal strains selected, according to the methodology described below. The first step was the isolation and identification of the fungal strains used in the study. The strains of filamentous fungi used in these tests (Penicillium digitatum, Penicillium italicum and Phytophthora citrophthora) were isolated from oranges affected by rot. In these isolation processes, it was not possible to detect any strain belonging to Geotrichum candidum, as a result of which it was necessary to obtain the latter substance from the Spanish Collection of Standard Cultures, where it is identified by reference CECT 1102. […] To promote the implantation of the inoculum of Geotrichum candidum, 200 ppm of cyclohexamide was added to the inoculum prior to its inoculation. […] The assessment of the effectiveness of PTS and PTSO comprised counting of the number of fruits affected by rot in the inoculated zone, to determine the percentage of fruit affected for each treatment and fungus inoculated, and expressing this effectiveness as a percentage of reduction of the affected fruit.
# [2] = system: Fusarium spp.; test: field tests on affected asparagus, Fusarium spp. in the soil; type: in vivo; details: for % Reduction / % elimination: soil, 60 days after application, compared to untreated control; for effectiveness of the application (in words): Fusarium spp. in asparagus, disinfection of agricultural soil
# Description: (§1) The treatment doses used were 250, 500 and 1000 ppm of both active principles (PT and PTSO), and the initial incidence of the pathogen was compared with its presence 60 days after its application.
# (§2) To analyze the growth of the crops infected by Fusarium spp. after the treatments, root and soil samples were taken and tests were performed in the laboratory to investigate the incidence of the pathogen in the roots and soil. The cultivation media used were potato dextrose agar and rose bengal agar (to prevent the invasive character of the Mucoralean fungi).
# (§3) The soil analysis was conducted by sequential dilutions of the soils in physiological serum with a subsequent sowing in the above mentioned media. The analysis of the roots was performed after dissection of the infected tissues, which were deposited in triplicate on filter paper located above both media, and their evolution over time was studied.
# (§4) The data are expressed as a percentage of elimination and reduction as a function of the treatment dose compared to the untreated control samples.
# [3] = system: Enteroccus faecalis ATCC 29212; test: agar diffusion test with impregnated cellulose discs; type: cell-based; details: incl. 6 mm disc
# [4] = system: Pseudomonas aeruginosa ATCC 9027; test: as above; type: cell-based; details: incl. 6 mm disc
# [5] = system: Penicillium solitum Wild strain; test: as above; type: cell-based; details: incl. 6 mm disc
# [6] = system: Fusarium spp.; test: field tests on affected asparagus, Fusarium spp. in roots; type: in vivo; details: 60 days after application, compared to untreated control
# Description: as §1, §2, §3, §4
# [7] = system: Fungi mixture (P. expansum, P. italicum, P. digitatum and A. Alternata); test: disinfection of containers stored inside the rooms by fogging
# [8] = system: post-harvest rot; test: post-harvest rot of oranges originating directly from the field (not inoculated); type: in vivo; details: for % of fruit affected: oranges refrigerated for 28 days at 5° C., 200 fruits not inoculated; for reduction of the quantity of fruit affected compared to the untreated fruit: specified doses, end of the refrigeration period (28 days at 5° C.)
# Description: Once the oranges had been artificially contaminated, the treatments were conducted by immersing the oranges in solutions of PTS and PTSO prepared at doses of 1600 and 2500 ppm, and were stored at 20° C.
# The assessment of the effectiveness of PTS and PTSO comprised counting of the number of fruits affected by rot in the inoculated zone, to determine the percentage of fruit affected for each treatment and fungus inoculated, and expressing this effectiveness as a percentage of reduction of the affected fruit.
# On the basis of the results obtained by the application of PTS and PTSO to oranges of the Navelina variety originating directly from the field, both products, applied in the specified doses, are effective in the control of post-harvest rot. Both PTS and PTSO in turn reduce by 50% the quantity of fruit affected at the end of the refrigeration period (28 days at a temperature of 5° C.) compared to the untreated fruit, as a result of which they are an effective alternative to the synthetic treatments conventionally used.
# [9] = system: Fungi mixture (P. expansum, P. italicum, P. digitatum and A. Alternata); test: disinfection of artificially contaminated containers by drencher; details: drencher 30 seconds
# Description: A test of the disinfection of containers (fruit boxes and crates) was conducted in which a level of artificial contamination was created by means of controlled inoculation, with the objective of determining optimum doses of application to achieve a satisfactory disinfection. First the containers (made of wood and plastic) were disinfected with sodium hypochlorite, and they were then artificially contaminated via controlled inoculations with different fungi characteristic of the fruit and vegetable processing sector. For this purpose, isolated wild strains were used which, after sporulation, were collected to create a suspension of mixed spores of various fungi (Penicillium expansum, Penicillium italicum, Penicillium digitarum and Alternario alternata) and, separately in simultaneous tests (as a result of its higher rate of growth and its invasive character), a suspension of Rhizopus stolonifer. […] After this fogging, the containers were allowed to dry. The containers were then sampled to determine the level of initial contamination achieved (by means of contact plates containing Rose Bengal agar). The containers were then treated in a pilot line […]. The hold time of the containers under the showers was 30 seconds, and the test doses were 750 ppm and 1050 ppm for PTS and 2000 ppm and 5000 ppm in the case of PTSO. After exiting the showers, the treated containers were allowed to dry, and were again sampled using contact plates with Rose Bengal agar to determine the final level of contamination. The sampling unit was 3 containers and 3 plates per repetition.
# [10] = 1600 ppm, 5 days of treatment at 20° C., title: treated with PTSO
# [11] = 1600 ppm, 7 days of treatment at 20° C., title: treated with PTSO
# [12] = 2500 ppm, 5 days of treatment at 20° C., title: treated with PTSO
# [13] = 2500 ppm, 7 days of treatment at 20° C., title: treated with PTSO
smiles,measurement,setting,value
"CCCSS(=O)(=O)CCC [PTSO, Propyl Propyl Thiosulfonate]",% Reduction,[1]; [10],72%
same,% Reduction,[1]; [11],40%
same,% Reduction,[1]; [12],85%
same,% Reduction,[1]; [13],57%
same,% Reduction,[2]; 250 ppm,15%
same,% elimination,[2]; 250 ppm,85%
same,% Reduction,[2]; 500 ppm,25%
same,% elimination,[2]; 500 ppm,75%
same,% Reduction,[2]; 1000 ppm,0%
same,% elimination,[2]; 1000 ppm,100%
same,effectiveness of the application (in words),[2],highly effective
same,diameter of the microbial inhibition halo,[3]; 60 ppm,26 mm
same,diameter of the microbial inhibition halo,[3]; 125 ppm,33 mm
same,diameter of the microbial inhibition halo,[3]; 250 ppm,45 mm
same,diameter of the microbial inhibition halo,[3]; 500 ppm,45 mm
same,diameter of the microbial inhibition halo,[3]; 1000 ppm,45 mm
same,diameter of the microbial inhibition halo,[4]; 60 ppm,6.5 mm
same,diameter of the microbial inhibition halo,[4]; 125 ppm,8 mm
same,diameter of the microbial inhibition halo,[4]; 250 ppm,9 mm
same,diameter of the microbial inhibition halo,[4]; 500 ppm,10 mm
same,diameter of the microbial inhibition halo,[4]; 1000 ppm,12 mm
same,diameter of the microbial inhibition halo,[5]; 60 ppm,0 mm
same,diameter of the microbial inhibition halo,[5]; 125 ppm,12 mm
same,diameter of the microbial inhibition halo,[5]; 250 ppm,20 mm
same,diameter of the microbial inhibition halo,[5]; 500 ppm,30 mm
same,diameter of the microbial inhibition halo,[5]; 1000 ppm,40 mm
same,% Reduction,[6]; 250 ppm,25%
same,% elimination,[6]; 250 ppm,33%
same,% Reduction,[6]; 500 ppm,14%
same,% elimination,[6]; 500 ppm,86%
same,% Reduction,[6]; 1000 ppm,43%
same,% elimination,[6]; 1000 ppm,57%
same,Reduction of the population (%),"[7]; 2000 ppm, Plastic container",94%
same,Reduction of the population (%),"[7]; 2000 ppm, Wood container",67%
same,Reduction of the population (%),"[7]; 5000 ppm, Plastic container",92%
same,Reduction of the population (%),"[7]; 5000 ppm, Wood container",70%
same,% of fruit affected,[8]; 2500 ppm,15%
same,reduction of the quantity of fruit affected compared to the untreated fruit,[8],50%
same,Reduction of the population (%),"[9]; 2000 ppm, Plastic container",93%
same,Reduction of the population (%),"[9]; 2000 ppm, Wood container",98%
same,Reduction of the population (%),"[9]; 5000 ppm, Plastic container",93%
same,Reduction of the population (%),"[9]; 5000 ppm, Wood container",99%
"CCCS[S+]([O-])CCC (centres unmarked) [PTS, Propyl Propyl Thiosulfinate]",% Reduction,[1]; [10],72%
same,% of fruit affected,[1]; [10],28%
same,% Reduction,[1]; [11],40%
same,% of fruit affected,[1]; [11],60%
same,% Reduction,"[1]; 1600 ppm, 14 days at 20° C.",0%
same,% of fruit affected,"[1]; 1600 ppm, 14 days at 20° C.",100%
same,% Reduction,"[1]; 1666 ppm, 7 days at 20° C.",23%
same,% of fruit affected,"[1]; 1666 ppm, 7 days at 20° C.",77%
same,% Reduction,[1]; [12],85%
same,% of fruit affected,[1]; [12],15%
same,% Reduction,"[1]; 2500 ppm, 7 days at 20° C.",53%
same,% of fruit affected,"[1]; 2500 ppm, 7 days at 20° C.",47%
same,% Reduction,[1]; [13],57%
same,% of fruit affected,[1]; [13],43%
same,% of fruit affected,"[1]; 2500 ppm, 14 days at 20° C.",36%
same,% Reduction,[2]; 250 ppm,0%
same,% elimination,[2]; 250 ppm,100%
same,% Reduction,[2]; 500 ppm,12.5%
same,% elimination,[2]; 500 ppm,87.5%
same,% Reduction,[2]; 1000 ppm,0%
same,% elimination,[2]; 1000 ppm,100%
same,effectiveness of the application (in words),[2],highly effective
same,diameter of the microbial inhibition halo,[3]; 60 ppm,15 mm
same,diameter of the microbial inhibition halo,[3]; 125 ppm,22 mm
same,diameter of the microbial inhibition halo,[3]; 250 ppm,26 mm
same,diameter of the microbial inhibition halo,[3]; 500 ppm,30 mm
same,diameter of the microbial inhibition halo,[3]; 1000 ppm,30 mm
same,diameter of the microbial inhibition halo,[4]; 60 ppm,8 mm
same,diameter of the microbial inhibition halo,[4]; 125 ppm,9 mm
same,diameter of the microbial inhibition halo,[4]; 250 ppm,10 mm
same,diameter of the microbial inhibition halo,[4]; 500 ppm,12 mm
same,diameter of the microbial inhibition halo,[4]; 1000 ppm,14 mm
same,diameter of the microbial inhibition halo,[5]; 60 ppm,0 mm
same,diameter of the microbial inhibition halo,[5]; 125 ppm,11 mm
same,diameter of the microbial inhibition halo,[5]; 250 ppm,16 mm
same,diameter of the microbial inhibition halo,[5]; 500 ppm,28 mm
same,diameter of the microbial inhibition halo,[5]; 1000 ppm,35 mm
same,% Reduction,[6]; 250 ppm,60%
same,% elimination,[6]; 250 ppm,0%
same,% Reduction,[6]; 500 ppm,14%
same,% elimination,[6]; 500 ppm,57%
same,% Reduction,[6]; 1000 ppm,13%
same,% elimination,[6]; 1000 ppm,58%
same,Reduction of the population (%),"[7]; 750 ppm, Plastic container",97%
same,Reduction of the population (%),"[7]; 750 ppm, Wood container",97%
same,Reduction of the population (%),"[7]; 1050 ppm, Plastic container",98%
same,Reduction of the population (%),"[7]; 1050 ppm, Wood container",97%
same,% of fruit affected,[8]; 1666 ppm,10%
same,reduction of the quantity of fruit affected compared to the untreated fruit,[8],50%
same,Reduction of the population (%),"[9]; 750 ppm, Plastic container",81%
same,Reduction of the population (%),"[9]; 750 ppm, Wood container",85%
same,Reduction of the population (%),"[9]; 1050 ppm, Plastic container",87%
same,Reduction of the population (%),"[9]; 1050 ppm, Wood container",85%
